According to US10774051B2, “6-membered heterocyclic derivatives and pharmaceutical composition comprising the same” (Shionogi & Co., Ltd., priority 2015, dated 2020):

Target: human P2X7 receptor (Homo sapiens, UniProt Q99572, R270H/Y155H)
Assay: Evaluation of human P2X7 receptor inhibitory activity (Yo-Pro uptake, BzATP stimulation, FLIPR TETRA)
Type: cell-based
Details: 1321N1 cells stably expressing human P2X7 receptor; BzATP stimulation, Yo-Pro uptake; read-out: IC50 (antagonistic activity for the human P2X7 receptor)
In short: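 Yo-Pro dye uptake triggered by BzATP was monitored by FLIPR in human P2X7-transfected 1321N1 cells (SNP variant) in HEPES-buffered HBSS, pH 7.4-7.5. Compound was dispensed 8 min post-stimulation, then signal read for 20 min; IC50 derived logistically from inhibition of the fluorescence range.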

`Cc1c(Cl)cccc1Nc1nc(=O)c(OCc2ccccc2)cn1Cc1ccccc1` [Compound I-0149] and `Cc1c(Cl)cccc1Nc1nc(=O)c(O)cn1Cc1ccccc1` [Compound I-0203] are within 1.5-fold of each other in IC50: 26 nM for the first, 18 nM for the second.

Going from `COc1cn(Cc2cc(F)c(F)c(F)c2)c(Oc2cc(-c3ncco3)ccc2C)nc1=O` [Compound I-0942] to `Cc1ccc(-c2ncco2)cc1Nc1nc(=O)c(F)cn1Cc1ccc(F)c(Cl)c1` [Compound I-0849], the IC50 falls from 230 nM to 3 nM (77-fold). The second is the more potent here.

Going from `COc1cn(Cc2ccc(F)c(Cl)c2)c(Nc2cccc3[nH]c(=O)ccc23)nc1=O` [Compound I-0397] to `COc1cn(Cc2ccc(F)c(Cl)c2)c(Nc2cc3c(cc2C)OCCC3)nc1=O` [Compound I-0914], the IC50 falls from 67 nM to 22 nM (3-fold).

First: COc1cn(Cc2cc(F)cc(F)c2)c(Nc2cc(C)c(F)cc2C)nc1=O [Compound I-0437]
Second: COc1cn(Cc2cc(C)cc(F)c2)c(Nc2cccc(Cl)c2C)nc1=O [Compound I-0425]
The IC50 of the first is 2.4-fold lower: 8 nM for the first, 19 nM for the second.

Compared with `CCOc1cc(Nc2nc(=O)c(OC)cn2Cc2ccc(F)c(Cl)c2)c(C)cc1C` [Compound I-0792], `COc1cnc(Nc2cccc(Cl)c2C)n(Cc2ccccc2)c1=O` [Compound I-0967] is 50-fold higher in IC50: 9 nM for the first, 450 nM for the second. The first is the more potent here.

Same assay, conditions: 1321N1 cells stably expressing human P2X7 receptor; BzATP stimulation, Yo-Pro uptake; read-out: IC50 (antagonistic activity for the human P2X7 receptor), class symbol

Compared with `COc1cn(Cc2ccc(F)c(F)c2)c(Nc2cccc(C)c2C)nc1=O` [Compound I-0324], `COc1cn(Cc2ccc(F)cc2)c(Nc2cccc(C)c2C)nc1=O` [Compound I-0141] is higher in IC50: less than 10 nM for the first, 10 to 100 nM for the second.

`COc1cccc(Nc2nc(=O)c(OC)cn2Cc2ccccc2)c1Cl` [Compound I-0115] and `COc1ccc(Nc2nc(=O)c(OC)cn2Cc2ccccc2)c(C)c1` [Compound I-0147] fall in the same range of IC50: 10 to 100 nM for the first, 10 to 100 nM for the second.

`COCCNC(=O)Cc1cn(Cc2ccccc2)c(Nc2cccc(Cl)c2C)nc1=O` [Compound I-0340] and `Cc1c(Cl)cccc1Nc1nc(=O)c(CC(=O)NC2CCOCC2)cn1Cc1ccccc1` [Compound I-0338] fall in the same range of IC50: 100 to 500 nM for the first, 100 to 500 nM for the second.

`COc1cn(Cc2ccccc2)c(Nc2cc(C)c(OC(F)F)cc2C)nc1=O` [Compound I-0237] and `COc1cn(Cc2ccccc2)c(Nc2cc(C)c(F)cc2C)nc1=O` [Compound I-0433] cannot be ordered by IC50: less than 10 nM for the first, less than 10 nM for the second.

Compared with `CCCc1ccccc1Nc1nc(=O)c(OC)cn1Cc1ccccc1` [Compound I-0109], `COc1cn(Cc2ccccc2F)c(Nc2cccc(Cl)c2C)nc1=O` [Compound I-0040] is lower in IC50: 500 to 1000 nM for the first, 10 to 100 nM for the second.

`COc1cc(C)c(Nc2nc(=O)c(OC)cn2Cc2cccc(Cl)c2)cc1OC` [Compound I-0208] and `COc1cc(C)c(Nc2nc(=O)c(F)cn2Cc2ccc(F)c(Cl)c2)cc1OC` [Compound I-0309] cannot be ordered by IC50: less than 10 nM for the first, less than 10 nM for the second.

`COc1cn(Cc2cc(F)cc(Cl)c2)c(Nc2cc(C)c(Cl)cc2C)nc1=O` [Compound I-0385] and `COc1cn(Cc2cc(F)cc(Cl)c2)c(Nc2cc(C)c(F)cc2C)nc1=O` [Compound I-0508] fall in the same range of IC50: 10 to 100 nM for the first, 10 to 100 nM for the second.

Compared with `CCc1ccc(Cl)cc1Nc1nc(=O)c(OC)cn1Cc1cccc(Cl)c1` [Compound I-0387], `CCc1ccc(OC)cc1Nc1nc(=O)c(OC)cn1Cc1ccc(F)c(Cl)c1` [Compound I-0246] is lower in IC50: 10 to 100 nM for the first, less than 10 nM for the second.

First: COc1ccc(Cl)c(Nc2nc(=O)c(OC)cn2Cc2ccc(F)c(Cl)c2)c1 [Compound I-0544]
Second: COc1cn(Cc2ccc(F)c(Cl)c2)c(NCc2cccc(Cl)c2C)nc1=O [Compound I-0451]
The IC50 of the first is lower: 10 to 100 nM for the first, 100 to 500 nM for the second. The first is the more potent here.

First: Cc1c(Cl)cccc1Nc1nc(=O)ccn1Cc1ccccc1 [Compound I-0009]
Second: Cc1cccc(Nc2nc(=O)c(Br)cn2Cc2ccccc2)c1C [Compound I-0108]
The IC50 of the first is lower: less than 10 nM for the first, 10 to 100 nM for the second.

Compared with `COc1ccc(Nc2nc(=O)c(OC)cn2Cc2cc(F)cc(F)c2)c(C)c1` [Compound I-0538], `COc1ccc(Nc2nc(=O)c(OC)cn2Cc2cc(F)c(F)c(F)c2)c(C)c1` [Compound I-0581] is lower in IC50: 10 to 100 nM for the first, less than 10 nM for the second. The second is the more potent here.

`COc1cc(C)c(Nc2nc(=O)c(OC)cn2Cc2ccc(F)cc2)cc1C` [Compound I-0282] and `COc1cn(Cc2ccc(F)cc2)c(Nc2cc(C)c(Cl)cc2C)nc1=O` [Compound I-0169] cannot be ordered by IC50: less than 10 nM for the first, less than 10 nM for the second.

First: CCc1ccc(OC)cc1Nc1nc(=O)c(OC)cn1Cc1ccc(F)cc1 [Compound I-0253]
Second: CCc1cc2c(cc1Nc1nc(=O)c(OC)cn1Cc1cccc(F)c1)CCC2 [Compound I-0179]
The IC50 of the first is higher: 10 to 100 nM for the first, less than 10 nM for the second. The second is the more potent here.

`Cc1c(Cl)cccc1Nc1nc(=O)c(C#N)cn1Cc1ccc(F)cc1` [Compound I-0056] and `COc1cn(Cc2ccccc2OC(F)F)c(Nc2cccc(Cl)c2C)nc1=O` [Compound I-0462] fall in the same range of IC50: 10 to 100 nM for the first, 10 to 100 nM for the second.

First: COc1cn(Cc2ccc(Cl)c(F)c2)c(Nc2cc3c(cc2C)OCCO3)nc1=O [Compound I-0293]
Second: COc1cc(C)cc(Nc2nc(=O)c(OC)cn2Cc2ccc(F)c(F)c2)c1C [Compound I-0404]
The IC50 of the first is higher: 10 to 100 nM for the first, less than 10 nM for the second.

`COc1cn(Cc2cc(F)cc(F)c2)c(Nc2cccc(C)c2Cl)nc1=O` [Compound I-0505] gave an IC50 of 10 to 100 nM.

Same assay, conditions: antagonistic activity for the human P2X7 receptor; read-out: IC50

Compared with `COc1cc(C)c(Nc2nc(=NC#N)c(OC)cn2Cc2cc(F)c(F)c(F)c2)cc1OC` [Compound I-1287], `COc1cc(Nc2nc(=O)c(OC)cn2Cc2cc(F)c(F)c(F)c2)c(C)cc1C` [Compound I-0715] is lower in IC50: 10 to 100 nM for the first, less than 10 nM for the second. The second is the more potent here.

First: COc1cn(Cc2ccc(F)c(F)c2)c(Nc2cc(-c3cscn3)ccc2C)nc1=O [Compound I-0751]
Second: COc1cn(Cc2ccc(F)c(F)c2)c(Nc2cc(-c3ccnn3C)ccc2C)nc1=O [Compound I-0783]
The IC50 of the first is lower: less than 10 nM for the first, 10 to 100 nM for the second. The first is the more potent here.

`Cc1cc2[nH]ncc2cc1Nc1nc(=O)c(F)cn1Cc1ccc(F)c(F)c1` [Compound I-1095] and `Cc1cc2[nH]ncc2cc1Nc1nc(=O)c(F)cn1Cc1ccc(F)c(Cl)c1` [Compound I-1093] fall in the same range of IC50: 10 to 100 nM for the first, 10 to 100 nM for the second.

`C=C(C)c1ccc(C)c(Nc2nc(=O)c(OC)cn2Cc2ccc(F)c(F)c2)c1` [Compound I-0747] and `CCc1ccccc1Nc1nc(=O)c(OC)cn1Cc1ccc(F)c(F)c1` [Compound I-0674] fall in the same range of IC50: 10 to 100 nM for the first, 10 to 100 nM for the second.

First: Cc1cc(OC(F)F)c(C)cc1Nc1nc(=O)c(Cl)cn1Cc1ccc(F)c(Cl)c1 [Compound I-0837]
Second: COc1cn(Cc2ccc(F)c(Cl)c2)c(Nc2cc(F)c(Cl)cc2C)nc1=O [Compound I-0887]
The IC50 of the first is lower: less than 10 nM for the first, 10 to 100 nM for the second.

Compared with `COc1cn(Cc2ccc(F)c(F)c2)c(Nc2cccc3c(=O)[nH]ccc23)nc1=O` [Compound I-0689], `O=c1nc(Nc2cccc3[nH]ccc23)n(Cc2ccc(F)c(F)c2)cc1F` [Compound I-1025] is lower in IC50: 10 to 100 nM for the first, less than 10 nM for the second. The second is the more potent here.

`COc1cc(Nc2nc(=O)c(F)cn2Cc2ccc(F)c(F)c2)c(C)cc1Cl` [Compound I-0993] and `COc1cc(C)c(Nc2nc(=O)c(F)cn2Cc2cc(F)c(F)c(F)c2)cc1Cl` [Compound I-1175] cannot be ordered by IC50: less than 10 nM for the first, less than 10 nM for the second.

`CCOc1ccc(C)c(Nc2nc(=O)c(F)cn2Cc2cc(F)c(F)c(F)c2)c1` [Compound I-1007] and `CCc1ccc(OC)cc1Nc1nc(=O)c(F)cn1Cc1cc(F)c(F)c(F)c1` [Compound I-1191] cannot be ordered by IC50: less than 10 nM for the first, less than 10 nM for the second.

`COc1ccc(Nc2nc(=O)c(Cl)cn2Cc2ccc(F)c(F)c2)c(C)c1` [Compound I-0844] and `COc1cc(Nc2nc(=O)c(OC)cn2Cc2ccc(F)c(Cl)c2)c(C)cc1F` [Compound I-0686] cannot be ordered by IC50: less than 10 nM for the first, less than 10 nM for the second.

First: COc1cnc(Nc2cc(C)c(Cl)cc2C)n(Cc2ccccc2)c1=O [Compound I-0981]
Second: COc1ccc(C)c(Nc2nc(=O)c(OC)cn2Cc2cccc(Cl)c2)c1 [Compound I-0627]
The IC50 of the first is higher: 500 to 1000 nM for the first, 10 to 100 nM for the second.

First: Cc1ccc(-c2ncco2)cc1Nc1nc(=O)c(Cl)cn1Cc1ccc(F)c(Cl)c1 [Compound I-0852]
Second: COc1cn(Cc2ccc(F)c(Cl)c2)c(Nc2cc(-c3ccnn3C)ccc2C)nc1=O [Compound I-0733]
The IC50 of the first is lower: less than 10 nM for the first, 10 to 100 nM for the second. The first is the more potent here.

`COc1cn(Cc2cc(F)cc(Cl)c2)c(Nc2cc(N3CCCC3=O)ccc2C)nc1=O` [Compound I-0647] and `COc1cn(Cc2cc(F)cc(Cl)c2)c(Nc2cc(C)cc3[nH]ccc23)nc1=O` [Compound I-0649] fall in the same range of IC50: 10 to 100 nM for the first, 10 to 100 nM for the second.

`CCOC(=O)c1cn(Cc2ccc(F)c(F)c2)c(Nc2cc(C)c(OC)cc2C)nc1=O` [Compound I-1109] and `COc1cc(Nc2nc(=O)c(OC)cn2Cc2ccc(F)c(Cl)c2)c(C)cc1C` [Compound I-0586] cannot be ordered by IC50: less than 10 nM for the first, less than 10 nM for the second.

`Cc1cc(F)c(-c2cccn(C)c2=O)cc1Nc1nc(=O)ccn1Cc1cc(F)c(F)c(F)c1` [Compound I-1137] and `Cc1cc(F)c(-c2cccn(C)c2=O)cc1Nc1nc(=O)c(C)cn1Cc1cc(F)c(F)c(F)c1` [Compound I-1148] fall in the same range of IC50: 10 to 100 nM for the first, 10 to 100 nM for the second.

`CCc1cc(Br)ccc1Nc1nc(=O)c(OC)cn1Cc1cc(F)cc(Cl)c1` [Compound I-0656] and `CCc1cc2c(cc1Nc1nc(=O)c(OC)cn1Cc1cc(F)cc(F)c1)OCO2` [Compound I-0743] fall in the same range of IC50: 10 to 100 nM for the first, 10 to 100 nM for the second.

First: COc1nc(C)c(Nc2nc(=O)c(F)cn2Cc2ccc(F)c(F)c2)cc1C [Compound I-1008]
Second: COc1cc(C)c(Nc2nc(=O)c(F)cn2Cc2cc(F)cc(F)c2)cc1F [Compound I-1101]
The IC50 of the first is lower: less than 10 nM for the first, 10 to 100 nM for the second. The first is the more potent here.

`CCOc1cc(C)c(Nc2nc(=O)c(F)cn2Cc2cc(F)cc(F)c2)cc1F` [Compound I-1061] and `CCOc1cc(C)c(Nc2nc(=O)c(F)cn2Cc2cc(F)c(F)c(F)c2)cc1F` [Compound I-1038] fall in the same range of IC50: 10 to 100 nM for the first, 10 to 100 nM for the second.

First: COc1ncccc1-c1ccc(C)c(Nc2nc(=O)c(OC)cn2Cc2cc(F)c(F)c(F)c2)c1 [Compound I-0832]
Second: COc1cn(Cc2cc(F)cc(F)c2)c(Nc2cc(-c3cccn(C)c3=O)c(F)cc2C)nc1=O [Compound I-0592]
The IC50 of the first is lower: less than 10 nM for the first, 10 to 100 nM for the second. The first is the more potent here.

`Cc1cc(N2CCOCC2)ccc1Nc1nc(=O)c(C)cn1Cc1cc(F)c(F)c(F)c1` [Compound I-1132] and `COc1ccc(C)c(Nc2nc(=O)c(C(=O)O)nn2Cc2cc(F)c(F)c(F)c2)c1` [Compound I-1249] fall in the same range of IC50: 10 to 100 nM for the first, 10 to 100 nM for the second.
